Entries after “also recorded” stand apart in the source; their conditions may differ. Activity calls are given as the source filed them. The rule behind the calls is not given here.
Test system: CCRIS mutagenicity, Ames/micronucleus/aberration tests
Assay: CCRIS mutagenicity studies
[1] = Test System: AMES SALMONELLA TYPHIMURIUM, Strain/Indicator: TA97, Metabolic Activation: NONE, Method: PREINCUBATION
[2] = Test System: AMES SALMONELLA TYPHIMURIUM, Strain/Indicator: TA98, Metabolic Activation: NONE, Method: PREINCUBATION
[3] = Test System: AMES SALMONELLA TYPHIMURIUM, Strain/Indicator: TA100, Metabolic Activation: NONE, Method: PREINCUBATION
[4] = Test System: AMES SALMONELLA TYPHIMURIUM, Strain/Indicator: TA1535, Metabolic Activation: NONE, Method: PREINCUBATION
[5] = End Point: IN VITRO CHROMOSOMAL ABERRATIONS, Test System: CHO CELLS, Metabolic Activation: NONE
[6] = End Point: IN VITRO CHROMOSOMAL ABERRATIONS, Test System: CHO CELLS, Metabolic Activation: RAT, LIVER, S-9, AROCLOR 1254
[7] = Test System: MOUSE LYMPHOMA, Strain/Indicator: L5178Y (TK+/TK-), Metabolic Activation: NONE, Method: SUSPENSION/PLATE

In the case of `CN(C(=O)CN(CCO)CC(=O)N(C)C(C)(C)Cc1ccccc1)C(C)(C)Cc1ccccc1`, the mutagenic call (Test System: AMES SALMONELLA TYPHIMURIUM, Strain/Indicator: TA97, Metabolic Activation: HAMSTER, LIVER, S-9, AROCLOR 1254 (10 OR 30%), Method: PREINCUBATION) is reported as “inactive; negative”, the mutagenic call [1] is reported as “inactive; negative” and the mutagenic call (Test System: AMES SALMONELLA TYPHIMURIUM, Strain/Indicator: TA97, Metabolic Activation: RAT, LIVER, S-9, AROCLOR 1254 (10 OR 30%), Method: PREINCUBATION) is reported as “inactive; negative”. For the same molecule, the mutagenic call (Test System: AMES SALMONELLA TYPHIMURIUM, Strain/Indicator: TA98, Metabolic Activation: HAMSTER, LIVER, S-9, AROCLOR 1254 (10 OR 30%), Method: PREINCUBATION) was “inactive; negative”, the mutagenic call [2] was “inactive; negative” and the mutagenic call (Test System: AMES SALMONELLA TYPHIMURIUM, Strain/Indicator: TA98, Metabolic Activation: RAT, LIVER, S-9, AROCLOR 1254 (10 OR 30%), Method: PREINCUBATION) was “inactive; negative”. The mutagenic call (Test System: AMES SALMONELLA TYPHIMURIUM, Strain/Indicator: TA100, Metabolic Activation: HAMSTER, LIVER, S-9, AROCLOR 1254 (10 OR 30%), Method: PREINCUBATION) was “inactive; negative”, the mutagenic call [3] was “inactive; negative” and the mutagenic call (Test System: AMES SALMONELLA TYPHIMURIUM, Strain/Indicator: TA100, Metabolic Activation: RAT, LIVER, S-9, AROCLOR 1254 (10 OR 30%), Method: PREINCUBATION) was “inactive; negative”. The mutagenic call (Test System: AMES SALMONELLA TYPHIMURIUM, Strain/Indicator: TA1535, Metabolic Activation: HAMSTER, LIVER, S-9, AROCLOR 1254 (10 OR 30%), Method: PREINCUBATION) was “inactive; negative”, the mutagenic call [4] was “inactive; negative” and the mutagenic call (Test System: AMES SALMONELLA TYPHIMURIUM, Strain/Indicator: TA1535, Metabolic Activation: RAT, LIVER, S-9, AROCLOR 1254 (10 OR 30%), Method: PREINCUBATION) was “inactive; negative”.
`O=C(O)c1cn(-c2ccc(F)cc2)c2cc(N3CCNCC3)c(F)cc2c1=O` was tested, and the mutagenic call (Test System: AMES SALMONELLA TYPHIMURIUM, Strain/Indicator: TA97, Metabolic Activation: NONE, Method: STANDARD PLATE) was “inactive; negative”, the mutagenic call (Test System: AMES SALMONELLA TYPHIMURIUM, Strain/Indicator: TA97, Metabolic Activation: S-9, Method: STANDARD PLATE) was “inactive; negative” and the mutagenic call (Test System: AMES SALMONELLA TYPHIMURIUM, Strain/Indicator: TA98, Metabolic Activation: NONE, Method: STANDARD PLATE) was “inactive; negative”. For the same molecule, the mutagenic call (Test System: AMES SALMONELLA TYPHIMURIUM, Strain/Indicator: TA98, Metabolic Activation: S-9, Method: STANDARD PLATE) was “inactive; negative”, the mutagenic call (Test System: AMES SALMONELLA TYPHIMURIUM, Strain/Indicator: TA100, Metabolic Activation: NONE, Method: STANDARD PLATE) was “inactive; negative” and the mutagenic call (Test System: AMES SALMONELLA TYPHIMURIUM, Strain/Indicator: TA100, Metabolic Activation: S-9, Method: STANDARD PLATE) was “inactive; negative”. The mutagenic call (Test System: AMES SALMONELLA TYPHIMURIUM, Strain/Indicator: TA102, Metabolic Activation: NONE, Method: STANDARD PLATE) was “inactive; negative” and the mutagenic call (Test System: AMES SALMONELLA TYPHIMURIUM, Strain/Indicator: TA102, Metabolic Activation: S-9, Method: STANDARD PLATE) was “inactive; negative”.
`O=C1C=CC[C@H](/C=C/c2ccccc2)O1` was tested, and the mutagenic call [5] was “active; positive (structural changes)” and the mutagenic call [6] was “active; positive (structural changes)”.
`CCCCCCCCCCCCCC(=O)N(OC(C)=O)c1ccc2c(c1)Cc1ccccc1-2` was tested, and the mutagenic call (Test System: UDS HUMAN FIBROBLASTS, Strain/Indicator: THY INCORP (NON-S-PHASE), Metabolic Activation: NONE, Method: AUTORADIOGRAPHY) was “active; positive”.
For `CCOC(=O)/C=C\C(=O)OCC`, the mutagenic call [7] was “active; positive”.
With `Brc1c(Br)c(Br)c(Oc2c(Br)c(Br)c(Br)c(Br)c2Br)c(Br)c1Br` the mutagenic call [5] was “inactive; negative; precipitation occurred at 160 and 500 ug/ml; also recorded: inactive; negative; precipitation occurred at 250 and 500 ug/ml”, the mutagenic call [6] was “inactive; negative; precipitation occurred at 250 and 500 ug/ml” and the mutagenic call (Test System: AMES SALMONELLA TYPHIMURIUM, Strain/Indicator: TA98, Metabolic Activation: HAMSTER, LIVER, S-9, AROCLOR 1254, Method: PREINCUBATION) was “inactive; negative”. The mutagenic call [2] was “inactive; negative”, the mutagenic call (Test System: AMES SALMONELLA TYPHIMURIUM, Strain/Indicator: TA98, Metabolic Activation: RAT LIVER S-9, PHENOBARBITAL AND BETA-NAPHTHOFLAVONE, Method: PREINCUBATION) was “inactive; negative” and the mutagenic call (Test System: AMES SALMONELLA TYPHIMURIUM, Strain/Indicator: TA98, Metabolic Activation: RAT, LIVER, S-9, AROCLOR 1254, Method: PREINCUBATION) was “inactive; negative”. The mutagenic call (Test System: AMES SALMONELLA TYPHIMURIUM, Strain/Indicator: TA100, Metabolic Activation: HAMSTER, LIVER, S-9, AROCLOR 1254, Method: PREINCUBATION) was “inactive; negative”, the mutagenic call [3] was “inactive; negative” and the mutagenic call (Test System: AMES SALMONELLA TYPHIMURIUM, Strain/Indicator: TA100, Metabolic Activation: RAT LIVER S-9, PHENOBARBITAL AND BETA-NAPHTHOFLAVONE, Method: PREINCUBATION) was “inactive; negative”. The mutagenic call (Test System: AMES SALMONELLA TYPHIMURIUM, Strain/Indicator: TA100, Metabolic Activation: RAT, LIVER, S-9, AROCLOR 1254, Method: PREINCUBATION) was “inactive; negative”, the mutagenic call (Test System: AMES SALMONELLA TYPHIMURIUM, Strain/Indicator: TA1535, Metabolic Activation: HAMSTER, LIVER, S-9, AROCLOR 1254, Method: PREINCUBATION) was “inactive; negative” and the mutagenic call [4] was “inactive; negative”. The mutagenic call (Test System: AMES SALMONELLA TYPHIMURIUM, Strain/Indicator: TA1535, Metabolic Activation: RAT LIVER S-9, PHENOBARBITAL AND BETA-NAPHTHOFLAVONE, Method: PREINCUBATION) was “inactive; negative”, the mutagenic call (Test System: AMES SALMONELLA TYPHIMURIUM, Strain/Indicator: TA1535, Metabolic Activation: RAT, LIVER, S-9, AROCLOR 1254, Method: PREINCUBATION) was “inactive; negative” and the mutagenic call (Test System: AMES SALMONELLA TYPHIMURIUM, Strain/Indicator: TA1537, Metabolic Activation: HAMSTER, LIVER, S-9, AROCLOR 1254, Method: PREINCUBATION) was “inactive; negative”. For the same molecule, the mutagenic call (Test System: AMES SALMONELLA TYPHIMURIUM, Strain/Indicator: TA1537, Metabolic Activation: NONE, Method: PREINCUBATION) was “inactive; negative”, the mutagenic call (Test System: AMES SALMONELLA TYPHIMURIUM, Strain/Indicator: TA1537, Metabolic Activation: RAT LIVER S-9, PHENOBARBITAL AND BETA-NAPHTHOFLAVONE, Method: PREINCUBATION) was “inactive; negative” and the mutagenic call (Test System: AMES SALMONELLA TYPHIMURIUM, Strain/Indicator: TA1537, Metabolic Activation: RAT, LIVER, S-9, AROCLOR 1254, Method: PREINCUBATION) was “inactive; negative”. The mutagenic call (Test System: CHO/HGPRT, Strain/Indicator: CHO/GIEMSA, Metabolic Activation: NONE, Method: STANDARD PLATE) was “inactive; negative”, the mutagenic call (Test System: CHO/HGPRT, Strain/Indicator: CHO/GIEMSA, Metabolic Activation: RAT, LIVER, S-9, AROCLOR 1254, Method: STANDARD PLATE) was “inactive; negative” and the mutagenic call (Test System: E.COLI, Strain/Indicator: WP2UVRA/PKM101, Metabolic Activation: NONE, Method: PREINCUBATION) was “inactive; negative”. For the same molecule, the mutagenic call (Test System: E.COLI, Strain/Indicator: WP2UVRA/PKM101, Metabolic Activation: RAT LIVER S-9, PHENOBARBITAL AND BETA-NAPHTHOFLAVONE, Method: PREINCUBATION) was “inactive; negative”, the mutagenic call [7] was “inactive; negative” and the mutagenic call (Test System: MOUSE LYMPHOMA, Strain/Indicator: L5178Y (TK+/TK-), Metabolic Activation: RAT, LIVER, S-9, AROCLOR 1254, Method: SUSPENSION/PLATE) was “inactive; negative”.
For `Oc1c2c(c3c(ccc4c3ccc3ccc5ccccc5c34)c1O)O2`, the mutagenic call [1] was “active; positive”, the mutagenic call [2] was “active; positive” and the mutagenic call [3] was “active; positive”. The mutagenic call (Test System: AMES SALMONELLA TYPHIMURIUM, Strain/Indicator: TA104, Metabolic Activation: NONE, Method: PREINCUBATION) was “active; positive” and the mutagenic call (Test System: CHINESE HAMSTER V-79, Strain/Indicator: V-79/6-THIOGUANINE, Metabolic Activation: NONE) was “active; positive”.

— PubChem BioAssay AID1259407 (Chemical Carcinogenesis Research Information System (CCRIS), 2018)
